Source: patent publication US9321849B2, “Uranium-chelating peptides and uses thereof” (priority 2003, dated 2016)
Where two headings read alike, the source gives them in different places.

What was measured:
[1] = Competition between calcium and uranyl for calmodulin, Dynafit simulation; type: binding; conditions: 8 μM calmodulin, 0.4 μM uranyl, calcium up to 8 mM
Experimental: (§1) The coordination of uranium (in uranyl form, 2.0 μM) by the native protein in 1 mM phosphate medium was also studied. The complexation of uranium with the protein is reflected by a drop in uranyl fluorescence intensity. The titration spectra are represented in FIG. 13. In another experiment, a 0.4 μM solution of uranyl nitrate in a 1.0 mM phosphate buffer (pH 7.0) was titrated with a solution of calmodulin up to a protein concentration of 8 μM. After the addition of 8 μM of calmodulin, calcium ions were added up to the concentration of 8 mM (FIG. 14). The values for the titration of uranyl by calmodulin were interpreted by simulating the experimental data with a system of equations corresponding to one, two, three or four independent sites for uranium (FIG. 16). The Dynafit software (Kuzmic, P. 1996, Anal. Biochem. 237, 260-273) was used for these simulations. […] The values for competition with the calcium ions were also interpreted with a system of suitable equations and the simulation of the experimental points with this system is given in FIG. 17. […] It is also considered, as a hypothesis, that each of these two sites is independent of the other. […]

[2] = TRLS titration of uranyl nitrate with calmodulin, Dynafit simulation; type: binding; conditions: 0.4 μM uranyl nitrate, 1.0 mM phosphate buffer pH 7.0, two-site simulation
Experimental: as §1

[3] = system: MLCKp peptide (calmodulin-binding domain of myosin light chain kinase); test: Tryptophan fluorescence of the MLCKp ligand peptide in the presence of calmodulin; design: species or system rabbit; conditions: 5 μM MLCKp
Experimental: The fluorescence spectra are recorded on a Cary Eclipse spectrometer (Varian, France) equipped with a thermostated cuvette holder. The excitation wavelength used is 280 nm with slot widths of 10 nm for excitation and of 2.5 nm for emission. The spectra are recorded between 300 nm and 450 nm in a cuvette with a 1 cm optical path.
In the presence of calcium, calmodulin can bind and activate a large diversity of targets. Among these, the MLCKp peptide, which has 17 residues and is derived from the calmodulin-binding domain of a rabbit muscle myosin light chain kinase (CALBIOCHEM), has the following sequence:
In a first series, a fluorescence spectrum for the tryptophan of the ligand, dissolved at a concentration of 5 μM in a 10 mM MES buffer, at pH 6.5, was recorded as described in example 1.
Excitation of the solution at 280 nm makes it possible to detect an emission at 350 nm, characteristic of a tryptophan exposed to the aqueous solvent.
This is compatible with a structure similar to that obtained in the case of calcium. […] The emission detected is then that of the metal (λ>450 nm) and no longer that of the tryptophan.

calmodulin
displacement of uranium by calcium [1]: just one of the two sites complexed with uranium is displaced by calcium | Kd ([2]; read-out: dissociation constant, uranyl, first of two high-affinity sites): 3.3 ± 0.4 µM | Kd ([2]; read-out: dissociation constant, uranyl, second of two high-affinity sites): 0.72 ± 0.2 µM | increase in intensity of ligand tryptophan fluorescence ([3]; 10 mM MES pH 6.5, one equivalent of calmodulin, absence of metals): 25% | increase in intensity of ligand tryptophan fluorescence ([3]; one equivalent of calmodulin, 10 equivalents of calcium): 20% | ligand tryptophan fluorescence in the presence of uranyl ([3]; one equivalent of calmodulin, uranyl): complete extinction of the fluorescence
